According to paper PMC5884652, “New antimicrobial peptide kills drug-resistant pathogens without detectable resistance” (Oncotarget, 2018):
Ends that are not written are not given here.

How the values were obtained:
S. aureus 0027 = assay: microbe, parasite or virus in culture; format: cell-based, Staphylococcus aureus; conditions: pH 7.4 (II); 10 mM sodium phosphate buffer, 10% LB; 37° C, 24 h; mean of 3 experiments
Outline: (§1)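 Broth microdilution with mid-log bacteria at 5 × 10^5 cfu/mL in 10 mM sodium phosphate (pH 5.5 or 7.4) plus 10% medium. Peptides were tested at 0.25–128 μM and antibiotics at 0.25–256 μM in 2-fold dilutions, incubated 24 h at 37 °C. MIC was read at 600 nm, as the mean of three triplicate experiments.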

S. aureus 1635 = assay: microbe, parasite or virus in culture; format: cell-based, Staphylococcus aureus; conditions: pH 7.4 (II); 10 mM sodium phosphate buffer, 10% LB; 37° C, 24 h; mean of 3 experiments
Outline: as §1

S. aureus 2122 = assay: microbe, parasite or virus in culture; format: cell-based, Staphylococcus aureus; conditions: pH 7.4 (II); 10 mM sodium phosphate buffer, 10% LB; 37° C, 24 h; mean of 3 experiments
Outline: as §1

S. aureus 3359 = assay: microbe, parasite or virus in culture; format: cell-based, Staphylococcus aureus; conditions: pH 7.4 (II); 10 mM sodium phosphate buffer, 10% LB; 37° C, 24 h; mean of 3 experiments
Outline: as §1

S. aureus 3518 = assay: microbe, parasite or virus in culture; format: cell-based, Staphylococcus aureus; conditions: pH 7.4 (II); 10 mM sodium phosphate buffer, 10% LB; 37° C, 24 h; mean of 3 experiments
Outline: as §1

S. aureus 4761 = assay: microbe, parasite or virus in culture; format: cell-based, Staphylococcus aureus; conditions: pH 7.4 (II); 10 mM sodium phosphate buffer, 10% LB; 37° C, 24 h; mean of 3 experiments
Outline: as §1

S. aureus 5157 = assay: microbe, parasite or virus in culture; format: cell-based, Staphylococcus aureus; conditions: pH 7.4 (II); 10 mM sodium phosphate buffer, 10% LB; 37° C, 24 h; mean of 3 experiments
Outline: as §1

S. aureus 5159 = assay: microbe, parasite or virus in culture; format: cell-based, Staphylococcus aureus; conditions: pH 7.4 (II); 10 mM sodium phosphate buffer, 10% LB; 37° C, 24 h; mean of 3 experiments
Outline: as §1

[1] = tested on: TNF-α and IL-1β in RAW 264.7 macrophages; assay: Pro-inflammatory cytokines in macrophages; format: cell-based, mouse
Experimental: To examine cytokine expression elicited by S. aureus CCARM 0027, RAW 264.7 mouse macrophages were cultured in DMEM supplemented with antibiotics ([…] penicillin and 100 μg/mL streptomycin) and 10% fetal calf serum in 12-well plates at 37° C in a humidified chamber with an atmosphere containing 5% CO2. Expression of the pro-inflammatory cytokines TNFα and IL-β was evaluated after the addition of S. aureus CCARM 0027 (1 × 10^6 cfu/mL) for 30 min at […]. After treatment, the RAW 264.7 cells (1 × 10^6 cells/mL) were incubated for an additional 24 h with or without CSP-4 (25, 50, 100, and 200 µg/mL). The cells were then collected and the protein was extracted using PRO-PREP™ protein extraction solution (iNtRON Biotechnology, Gyeonggi-do, Korea).
RAW 264.7 cells (1 × 10^6 cells/mL) were seeded into a 12-well plate and incubated for 24 h as described above. […] The levels of pro-inflammatory cytokines in the supernatants were determined after 12 h using mouse anti-TNF-α and anti-IL-1β antibodies based on absorbance at 450 nm using a microplate reader (VERSA Max microplate reader, Molecular Devices). Cytokine concentrations were also determined using TNF-α and IL-1β enzyme-linked immunosorbent assay kits (Koma Biotech, Seoul, Korea). […]

E. coli = assay: Time-kill kinetics; format: cell-based; conditions: pH 5.5 and pH 7.4, peptides at their respective MICs
Experimental: E. coli were grown overnight in LB broth (pH 5.5 or pH 7.4) and diluted to an OD600 of 0.05. CSP-4 was then added so that the final concentration was either the MIC or 1/2 MIC. E. coli cells were then sampled at 1-min intervals for the first 10 min and at 10-min intervals thereafter for 2 h. The cultures were then diluted 50-fold in PBS buffer and plated on LB agar. Colonies were counted after 24 h.

In the case of FLRFIGSVKHGKGHLVHHIGVAL-NH2 [CSP-4], the MIC (S. aureus 0027) is reported as 8 µM, the MIC (S. aureus 1635) is reported as 8 µM and the MIC (S. aureus 2122) is reported as 8 µM. The MIC (S. aureus 3359) was 8 µM, the MIC (S. aureus 3518) was 8 µM and the MIC (S. aureus 4761) was 8 µM. The MIC (S. aureus 5157) was 8 µM, the MIC (S. aureus 5159) was 8 µM and the “TNF-α and IL-1β levels” value ([1]; RAW 264.7 cells exposed to S. aureus CCARM 0027 (1 × 10^6 cfu/mL), CSP-4 25, 50, 100, and 200 μg/mL, ELISA) was “significantly decreased”. For the same substance, the “TNF-α and IL-1β levels” value ([1]; RAW 264.7 cells treated with 1 μg/mL S. aureus LTA, CSP-4 100 µg/mL, immunocytochemistry) was “reduced TNF-α and IL-1β levels” and the Killing kinetics (E. coli) was “reduced bacterial growth faster than CSP”.
